Structures are written as SMILES.

In the assay the target is ROCK2 (Homo sapiens (Human), UniProt O75116). Put plainly: ROCK2 assay (peptide phosphorylation, LABCHIP 3000 Reader). The assay is classed as biochemical. As to conditions: 5 μM ATP, 1.5 μM peptide substrate. The procedure: The effectiveness of compounds of the present invention as ROCK inhibitors can be determined in a 30 μL, assay containing 20 mM HEPES, pH 7.5, 20 mM MgCl2, 0.015% Brij-35, 4 mM DTT, 5 μM ATP and 1.5 μM peptide substrate (FITC-AHA-AKRRRLSSLRA-OH). Compounds were dissolved in DMSO so that the final concentration of DMSO was <2%, and the reaction was initiated with Rho kinase variants. After incubation, the reaction was terminated by the addition of EDTA and the phosphorylated and non-phosphorylated peptides separated using a LABCHIP® 3000 Reader (Caliper Life Sciences). […] Compounds were tested in dose-response format, and the inhibition of kinase activity was calculated at each concentration of compound. The inhibition data were fit using a curve-fitting program to determine the IC50; i.e., the concentration of compound required to inhibit 50% of kinase activity.
Sequence of ROCK2 (O75116 whole entry, species assumed): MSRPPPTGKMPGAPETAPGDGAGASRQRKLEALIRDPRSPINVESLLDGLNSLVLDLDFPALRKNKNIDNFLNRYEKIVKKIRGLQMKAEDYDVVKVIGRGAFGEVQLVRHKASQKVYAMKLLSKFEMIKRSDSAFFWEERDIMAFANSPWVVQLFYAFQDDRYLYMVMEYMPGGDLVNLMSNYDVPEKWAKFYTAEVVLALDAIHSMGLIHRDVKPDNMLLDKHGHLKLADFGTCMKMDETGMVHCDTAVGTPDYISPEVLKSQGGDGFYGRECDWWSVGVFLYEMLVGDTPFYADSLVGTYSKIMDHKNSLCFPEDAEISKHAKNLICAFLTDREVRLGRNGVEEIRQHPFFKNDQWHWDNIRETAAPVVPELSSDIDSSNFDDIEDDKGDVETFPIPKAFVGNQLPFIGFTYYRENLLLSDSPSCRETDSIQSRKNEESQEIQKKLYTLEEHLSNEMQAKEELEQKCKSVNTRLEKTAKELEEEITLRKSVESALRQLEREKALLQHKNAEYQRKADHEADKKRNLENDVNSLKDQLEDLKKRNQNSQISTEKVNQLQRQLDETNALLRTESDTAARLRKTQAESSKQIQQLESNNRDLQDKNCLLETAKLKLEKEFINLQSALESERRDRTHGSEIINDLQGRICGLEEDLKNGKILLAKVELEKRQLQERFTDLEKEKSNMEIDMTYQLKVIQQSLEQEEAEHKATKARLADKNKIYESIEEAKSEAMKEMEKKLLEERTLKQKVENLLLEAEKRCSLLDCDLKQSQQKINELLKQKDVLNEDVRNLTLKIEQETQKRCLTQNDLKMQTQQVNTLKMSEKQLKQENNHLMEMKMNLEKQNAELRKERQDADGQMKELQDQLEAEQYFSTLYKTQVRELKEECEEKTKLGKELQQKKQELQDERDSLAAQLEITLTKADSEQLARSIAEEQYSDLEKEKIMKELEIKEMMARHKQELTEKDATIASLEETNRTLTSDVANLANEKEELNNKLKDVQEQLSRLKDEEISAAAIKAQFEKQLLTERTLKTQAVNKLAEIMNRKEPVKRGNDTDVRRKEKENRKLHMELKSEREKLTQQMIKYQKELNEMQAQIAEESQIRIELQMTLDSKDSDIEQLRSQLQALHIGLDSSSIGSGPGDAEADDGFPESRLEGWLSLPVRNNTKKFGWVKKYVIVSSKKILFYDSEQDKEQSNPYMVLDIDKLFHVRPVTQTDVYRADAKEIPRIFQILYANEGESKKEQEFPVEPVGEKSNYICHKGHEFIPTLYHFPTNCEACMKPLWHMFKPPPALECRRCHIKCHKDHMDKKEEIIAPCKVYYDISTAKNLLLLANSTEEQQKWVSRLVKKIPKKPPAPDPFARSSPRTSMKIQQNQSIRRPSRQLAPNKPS
Representative Examples were tested in the ROCK2 assay described above and found having ROCK2 inhibitory activity.
For `COc1cccc(C(C)n2cnn(-c3ccc(-c4cn[nH]c4)cc3)c2=O)c1` (single isomer, unassigned) [Example 47, 1-(4-(1H-pyrazol-4-yl)phenyl)-4-(1-(3-methoxyphenyl)ethyl)-1H-1,2,4-triazol-5(4H)-one], the IC50 lay within 5 to 50 nM.
Then `COc1cccc(C(C)n2cnn(-c3ccc(-c4cn[nH]c4)cc3)c2=O)c1` (single isomer, unassigned) [Example 48, 1-(4-(1H-pyrazol-4-yl)phenyl)-4-(1-(3-methoxyphenyl)ethyl)-1H-1,2,4-triazol-5(4H)-one], with under 5 nM.
The figure for `COc1cccc(C(C)n2c(C)nn(-c3ccc(-c4cn[nH]c4)cc3)c2=O)c1` (single isomer, unassigned) [Example 118, 1-(4-(1H-pyrazol-4-yl)phenyl)-4-(1-(3-methoxyphenyl)ethyl)-3-methyl-1H-1,2,4-triazol-5(4H)-one] is 5 to 50 nM.
Turning to `COc1cccc(C(C)n2c(C)nn(-c3ccc(-c4cn[nH]c4)cc3)c2=O)c1` (single isomer, unassigned) [Example 119, 1-(4-(1H-pyrazol-4-yl)phenyl)-4-(1-(3-methoxyphenyl)ethyl)-3-methyl-1H-1,2,4-triazol-5(4H)-one], the IC50 fell in the range of 5 to 50 nM.
The figure for `CC(O)c1nn(-c2ccc(-c3cn[nH]c3)cc2)c(=O)n1Cc1ccccc1` (single isomer, unassigned) [Example 140, 1-(4-(1H-pyrazol-4-yl)phenyl)-4-benzyl-3-(1-hydroxyethyl)-1H-1,2,4-triazol-5(4H)-one] is 5 to 50 nM; for `CC(O)c1nn(-c2ccc(-c3cn[nH]c3)cc2)c(=O)n1Cc1ccccc1` (single isomer, unassigned) [Example 141, 1-(4-(1H-pyrazol-4-yl)phenyl)-4-benzyl-3-(1-hydroxyethyl)-1H-1,2,4-triazol-5(4H)-one] it is 5 to 50 nM.
Then `COc1cc(Cn2c(C(C)O)nn(-c3ccc(-c4cn[nH]c4)cc3)c2=O)cc(OC)c1` (single isomer, unassigned) [Example 147, 1-(4-(1H-pyrazol-4-yl)phenyl)-4-(3,5-dimethoxybenzyl)-3-(1-hydroxyethyl)-1H-1,2,4-triazol-5(4H)-one], with 50 to 250 nM; and `O=c1n(-c2ccc(-c3cn[nH]c3)cc2)cnn1Cc1cccc(F)c1` [Example 1, 4-(4-(1H-pyrazol-4-yl)phenyl)-1-(3-fluorobenzyl)-1H-1,2,4-triazol-5(4H)-one], with 50 to 250 nM; and `O=c1n(-c2ccc(-c3cn[nH]c3)cc2)cnn1Cc1ccccc1` [Example 2, 4-(4-(1H-pyrazol-4-yl)phenyl)-1-benzyl-1H-1,2,4-triazol-5(4H)-one], with 50 to 250 nM.
The figure for `COc1cccc(Cn2ncn(-c3ccc(-c4cn[nH]c4)cc3)c2=O)c1` [Example 3, 4-(4-(1H-pyrazol-4-yl)phenyl)-1-(3-methoxybenzyl)-1H-1,2,4-triazol-5(4H)-one] is 50 to 250 nM; for `O=c1n(-c2ccc(-c3cn[nH]c3)cc2)cnn1Cc1cc(F)ccc1F` [Example 4, 4-(4-(1H-pyrazol-4-yl)phenyl)-1-(2,5-difluorobenzyl)-1H-1,2,4-triazol-5(4H)-one] it is 250 to 2000 nM.
Consider `COc1cc(-n2cnn(Cc3ccccc3)c2=O)ccc1-c1cn[nH]c1` [Example 5, 1-benzyl-4-(3-methoxy-4-(1H-pyrazol-4-yl)phenyl)-1H-1,2,4-triazol-5(4H)-one], for which the IC50 lay in the range of 50 to 250 nM.
Then `COc1cccc(Cn2ncn(-c3ccc(-c4cn[nH]c4)c(OC)c3)c2=O)c1` [Example 6, 4-(3-methoxy-4-(1H-pyrazol-4-yl)phenyl)-1-(3-methoxybenzyl)-1H-1,2,4-triazol-5(4H)-one], with 5 to 50 nM; and `COc1cc(-n2cnn(Cc3cccc(F)c3)c2=O)ccc1-c1cn[nH]c1` [Example 7, 1-(3-fluorobenzyl)-4-(3-methoxy-4-(1H-pyrazol-4-yl)phenyl)-1H-1,2,4-triazol-5(4H)-one], with 50 to 250 nM.
The figure for `COc1cc(-n2cnn(C(C)c3ccccc3)c2=O)ccc1-c1cn[nH]c1` (stereo not drawn) [Example 8, 4-(3-methoxy-4-(1H-pyrazol-4-yl)phenyl)-1-(1-phenylethyl)-1H-1,2,4-triazol-5(4H)-one] is 250 to 2000 nM; for `COc1cc(-n2cnn(CCc3ccccc3)c2=O)ccc1-c1cn[nH]c1` [Example 9, 4-(3-methoxy-4-(1H-pyrazol-4-yl)phenyl)-1-phenethyl-1H-1,2,4-triazol-5(4H)-one] it is 50 to 250 nM.
Then `COc1cc(-c2cn[nH]c2)ccc1-n1cnn(Cc2ccccc2)c1=O` [Example 10, 1-benzyl-4-(2-methoxy-4-(1H-pyrazol-4-yl)phenyl)-1H-1,2,4-triazol-5(4H)-one], with 250 to 2000 nM; and `COc1cccc(Cn2ncn(-c3ccc(-c4cn[nH]c4)cc3OC)c2=O)c1` [Example 11, 4-(2-methoxy-4-(1H-pyrazol-4-yl)phenyl)-1-(3-methoxybenzyl)-1H-1,2,4-triazol-5(4H)-one], with 50 to 250 nM.
For the molecule `COc1cc(-c2cn[nH]c2)ccc1-n1cnn(Cc2cccc(F)c2)c1=O` [Example 12, 1-(3-fluorobenzyl)-4-(2-methoxy-4-(1H-pyrazol-4-yl)phenyl)-1H-1,2,4-triazol-5(4H)-one], the IC50 fell in the range of 50 to 250 nM.
Then `COc1cc(-c2cn[nH]c2)ccc1-n1cnn(Cc2cc(F)ccc2F)c1=O` [Example 13, 1-(2,5-difluorobenzyl)-4-(2-methoxy-4-(1H-pyrazol-4-yl)phenyl)-1H-1,2,4-triazol-5(4H)-one], with 250 to 2000 nM; and `COc1cc(-c2cn[nH]c2)ccc1-n1cnn(CCc2ccccc2)c1=O` [Example 14, 4-(2-methoxy-4-(1H-pyrazol-4-yl)phenyl)-1-phenethyl-1H-1,2,4-triazol-5(4H)-one], with 50 to 250 nM; and `CC(c1ccccc1)n1ncn(-c2ccc(-c3cn[nH]c3)cc2)c1=O` (stereo not drawn) [Example 15, 4-(4-(1H-pyrazol-4-yl)phenyl)-1-(1-phenylethyl)-1H-1,2,4-triazol-5(4H)-one], with 250 to 2000 nM.
Then `COc1cc(-c2cn[nH]c2)ccc1-n1cnn(Cc2cc(F)ccc2F)c1=O` [Example 16, 1-(2,5-difluorobenzyl)-4-(2-methoxy-4-(1H-pyrazol-4-yl)phenyl)-1H-1,2,4-triazol-5(4H)-one], with 50 to 250 nM.
Then `O=c1n(Cc2ccccc2)cnn1-c1ccc(-c2cn[nH]c2)cc1` [Example 17, 1-(4-(1H-pyrazol-4-yl)phenyl)-4-benzyl-1H-1,2,4-triazol-5(4H)-one], with 5 to 50 nM; and `COc1cccc(Cn2cnn(-c3ccc(-c4cn[nH]c4)cc3)c2=O)c1` [Example 18, 1-(4-(1H-pyrazol-4-yl)phenyl)-4-(3-methoxybenzyl)-1H-1,2,4-triazol-5(4H)-one], with under 5 nM.
The molecule `O=c1n(Cc2cccc(F)c2)cnn1-c1ccc(-c2cn[nH]c2)cc1` [Example 19, 1-(4-(1H-pyrazol-4-yl)phenyl)-4-(3-fluorobenzyl)-1H-1,2,4-triazol-5(4H)-one] had an IC50 of under 5 nM.
The figure for `O=c1n(Cc2cc(F)ccc2F)cnn1-c1ccc(-c2cn[nH]c2)cc1` [Example 20, 1-(4-(1H-pyrazol-4-yl)phenyl)-4-(2,5-difluorobenzyl)-1H-1,2,4-triazol-5(4H)-one] is 5 to 50 nM; for `COc1cc(F)cc(Cn2cnn(-c3ccc(-c4cn[nH]c4)cc3)c2=O)c1` [Example 21, 1-(4-(1H-pyrazol-4-yl)phenyl)-4-(3-fluoro-5-methoxybenzyl)-1H-1,2,4-triazol-5(4H)-one] it is under 5 nM; for `CC(c1ccccc1)n1cnn(-c2ccc(-c3cn[nH]c3)cc2)c1=O` (stereo not drawn) [Example 22, 1-(4-(1H-pyrazol-4-yl)phenyl)-4-(1-phenylethyl)-1H-1,2,4-triazol-5(4H)-one] it is under 5 nM.
Then `COc1cc(-n2ncn(Cc3ccccc3)c2=O)ccc1-c1cn[nH]c1` [Example 23, 4-benzyl-1-(3-methoxy-4-(1H-pyrazol-4-yl)phenyl)-1H-1,2,4-triazol-5(4H)-one], with under 5 nM.
The figure for `COc1cccc(Cn2cnn(-c3ccc(-c4cn[nH]c4)c(OC)c3)c2=O)c1` [Example 24, 1-(3-methoxy-4-(1H-pyrazol-4-yl)phenyl)-4-(3-methoxybenzyl)-1H-1,2,4-triazol-5(4H)-one] is under 5 nM; for `COc1cc(-n2ncn(Cc3cc(F)ccc3F)c2=O)ccc1-c1cn[nH]c1` [Example 25, 4-(2,5-difluorobenzyl)-1-(3-methoxy-4-(1H-pyrazol-4-yl)phenyl)-1H-1,2,4-triazol-5(4H)-one] it is 5 to 50 nM.
The molecule `COc1cc(F)cc(Cn2cnn(-c3ccc(-c4cn[nH]c4)c(OC)c3)c2=O)c1` [Example 26, 4-(3-fluoro-5-methoxybenzyl)-1-(3-methoxy-4-(1H-pyrazol-4-yl)phenyl)-1H-1,2,4-triazol-5(4H)-one] came in with an IC50 of under 5 nM.
Then `COc1cc(-n2ncn(C(C)c3ccccc3)c2=O)ccc1-c1cn[nH]c1` (stereo not drawn) [Example 27, 1-(3-methoxy-4-(1H-pyrazol-4-yl)phenyl)-4-(1-phenylethyl)-1H-1,2,4-triazol-5(4H)-one], with under 5 nM; and `O=c1n(Cc2ccccc2F)cnn1-c1ccc(-c2cn[nH]c2)cc1` [Example 28, 1-(4-(1H-pyrazol-4-yl)phenyl)-4-(2-fluorobenzyl)-1H-1,2,4-triazol-5(4H)-one], with 5 to 50 nM; and `O=c1n(Cc2ccccc2Cl)cnn1-c1ccc(-c2cn[nH]c2)cc1` [Example 29, 1-(4-(1H-pyrazol-4-yl)phenyl)-4-(2-chlorobenzyl)-1H-1,2,4-triazol-5(4H)-one], with 5 to 50 nM.

The IC50 is the concentration that gives 50% inhibition. Low readings indicate greater potency in that assay, high ones weaker potency in that assay.

Source of the values: patent US10562887B2, “Triazolones and tetrazolones as inhibitors of ROCK” (BRISTOL-MYERS SQUIBB COMPANY, priority 2016, dated 2020).
